Patent US20070244146A1, “Thienopyridines as IKK inhibitors” (priority 2004, published 2007)

Target: T1, recombinant human IKKb (Homo sapiens, UniProt O14920)
T1 sequence (O14920 1-756): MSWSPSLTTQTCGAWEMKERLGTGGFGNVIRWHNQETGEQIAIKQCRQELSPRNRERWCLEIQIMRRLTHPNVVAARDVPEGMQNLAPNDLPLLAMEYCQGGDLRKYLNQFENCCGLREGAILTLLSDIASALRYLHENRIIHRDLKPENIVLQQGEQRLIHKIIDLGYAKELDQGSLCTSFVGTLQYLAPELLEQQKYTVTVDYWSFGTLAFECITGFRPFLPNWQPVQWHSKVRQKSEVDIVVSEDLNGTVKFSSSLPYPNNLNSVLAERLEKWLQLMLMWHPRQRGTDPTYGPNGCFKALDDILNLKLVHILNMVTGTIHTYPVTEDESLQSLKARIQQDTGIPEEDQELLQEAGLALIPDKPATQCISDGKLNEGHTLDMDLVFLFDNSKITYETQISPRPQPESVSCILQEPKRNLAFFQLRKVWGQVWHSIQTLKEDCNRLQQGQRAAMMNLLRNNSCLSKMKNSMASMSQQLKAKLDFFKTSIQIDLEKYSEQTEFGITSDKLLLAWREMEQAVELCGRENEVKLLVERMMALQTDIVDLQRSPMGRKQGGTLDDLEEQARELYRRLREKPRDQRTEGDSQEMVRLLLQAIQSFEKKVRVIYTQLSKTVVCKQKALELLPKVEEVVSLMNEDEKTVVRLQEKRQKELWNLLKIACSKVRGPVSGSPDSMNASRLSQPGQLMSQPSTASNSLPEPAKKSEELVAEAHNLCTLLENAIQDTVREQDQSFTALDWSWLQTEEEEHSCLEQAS
Assay: IKK kinase assay: incorporation of radiolabeled ATP into biotin-peptide substrate derived from IkB-alpha
Type: biochemical
Details: purified recombinant human IKKb 25 nM, ATP 10 μM, 30 min at 30° C.
Experimental: This example describes an assay that is useful in evaluating and selecting a compound that modulates IKK. The assay measures the incorporation of radiolabeled ^3P gATP into the Biotin-peptide kinase substrate, derived from the IkB-alpha sequence.
In a 40 ul volume, 26 ul of ADB diluted, purified recombinant human IKKb [25 nM] was mixed with 4 ul 10× concentration of test compounds, [usually 100 uM-0.003 uM], [10%] DMSO and incubated for 10 minutes at room temperature. The kinase reaction was initiated by the addition of 10 ul 4× substrate cocktail containing the peptide substrate [0 or 30 μM] ATP [10 μM], and ^3PgATP [2 uCi/r×n]. After 30 minutes of incubation at 30° C., the reaction was terminated by the transfer of 25 ul reaction sample to a phosphocellulose membrane/plate containing 150 ul 0.75% phosphoric acid.
On the following day, the free radionucleotides in the phosphocellulose membrane were washed under vacuum with 3×200 ul of 0.75% phosphoric acid. After the last wash membrane/plates were transferred to an adoptor plate and 70 ul of scintillation cocktail was added to each well. After four hours, the amount of radioactivity for each well was counted in a top counter.

- IC50: < 1000 nM
SMILES: N#Cc1cccc(-c2cc3c(N)ncc(C(N)=O)c3s2)c1 [Compound 12, 4-Amino-2-(3-cyano-phenyl)-thieno[3,2-c]pyridine-7-carboxylic acid amide]
